Test results reported in patent US9890185B2, “Urea derivatives useful as kinase inhibitors” (Respivert Limited, priority 2013, dated 2018).

Tests used:
c-Src = c-Src (Homo sapiens (Human), UniProt P12931); assay: c-Src enzyme inhibition (FRET, Z-LYTE); format: biochemical
Procedure, shortened: (§1)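 Z-LYTE FRET; enzyme + cpd 2 hr RT, then peptide + ATP 1 hr (ATP added soln: c-Src 800 μM, Syk 60 μM); protease 1 hr. Donor/acceptor emission ratio, % inhib vs uninhibited control, IC50 from curve.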

Syk = Syk (Homo sapiens (Human), UniProt P43405); assay: Syk enzyme inhibition (FRET, Z-LYTE); format: biochemical
Procedure, shortened: as §1

PBMCs [1] = assay: IL-2 release in CD3/CD28 stimulated PBMC cells (assay c); format: cell-based; details: Homo sapiens, read-out: IC50 Values for Inhibition of Cytokine Release, PBMCs IL-2
Procedure, shortened: (§2)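 Compound added to human PBMCs on anti-CD3/anti-CD28-coated wells (0.3 and 3 μg/mL respectively); 3-day culture. Sandwich ELISA of supernatant IL-2 or IFN gamma gives the read-out, with IC50 derived from the dose-response curve.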

PBMCs [2] = assay: IFN gamma release in CD3/CD28 stimulated PBMC cells (assay c); format: cell-based; details: Homo sapiens, read-out: IC50 Values for Inhibition of Cytokine Release, PBMCs IFNγ
Procedure, shortened: as §2

HT29 cells = assay: IL-1β-induced IL-8 release in HT29 cells (assay d); format: cell-based; details: Homo sapiens, HT-29; IL-1β-stimulated HT29 cells; read-out: IC50 Values for Inhibition of Cytokine Release, HT29 cells IL-8
Description: HT29 cells, a human colon adenocarcinoma cell line, are plated in a 96 well plate (24 hrs) and pre-treated with compounds at the desired concentration for 2 hours before addition of 5 ng/mL of IL-1β (Abcam) for 24 hours. Supernatants are harvested for IL-8 quantification by Sandwich ELISA (Duo-set, R&D System). The IC50 is determined from the dose response curve.

Chain of c-Src (P12931 whole entry, looked up): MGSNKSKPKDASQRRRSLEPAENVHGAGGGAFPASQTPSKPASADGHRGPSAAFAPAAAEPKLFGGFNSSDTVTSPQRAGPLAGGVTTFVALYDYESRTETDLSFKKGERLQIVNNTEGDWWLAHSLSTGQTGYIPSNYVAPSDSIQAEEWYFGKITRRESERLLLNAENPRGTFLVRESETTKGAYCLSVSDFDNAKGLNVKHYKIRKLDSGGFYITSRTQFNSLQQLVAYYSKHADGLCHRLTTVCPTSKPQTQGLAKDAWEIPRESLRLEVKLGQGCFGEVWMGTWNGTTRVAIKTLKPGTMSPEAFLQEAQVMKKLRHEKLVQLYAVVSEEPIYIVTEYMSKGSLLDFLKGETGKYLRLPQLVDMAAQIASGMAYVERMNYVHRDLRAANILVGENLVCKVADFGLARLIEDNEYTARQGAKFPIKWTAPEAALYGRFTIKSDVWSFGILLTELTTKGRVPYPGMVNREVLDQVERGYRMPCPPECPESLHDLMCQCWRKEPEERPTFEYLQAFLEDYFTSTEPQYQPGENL

Compound | IC50 (c-Src) | IC50 (Syk) | IC50 (PBMCs [1]) | IC50 (PBMCs [2]) | IC50 (HT29 cells)
COc1c(NC(=O)Nc2ccc(Oc3ccnc(Nc4cccnc4)c3)c3ccccc23)cc(C(C)(C)C)cc1P(C)(C)=O [15(ad), 1-(5-(tert-butyl)-3-(dimethylphosphoryl)-2-methoxyphenyl)-3-(4-((2-(pyridin-3-ylamino)pyridin-4-yl)oxy)naphthalen-1-yl)urea] | 129 nM | 1000 nM | 1110 nM | 16.2 nM | –
COc1cc(F)cc(Nc2cc(Oc3ccc(NC(=O)Nc4cc(C(C)(C)C)cc(P(C)(C)=O)c4OC)c4ccccc34)ccn2)c1 [15(an), 1-(5-(tert-butyl)-3-(dimethylphosphoryl)-2-methoxyphenyl)-3-(4-((2-((3-fluoro-5-methoxyphenyl)amino)pyridin-4-yl)oxy)naphthalen-1-yl)urea] | 116 nM | 712 nM | 251 nM | 6.2 nM | –
COc1c(NC(=O)Nc2ccc(Oc3ccnc(Nc4cnn(C)n4)n3)c3ccccc23)cc(C(C)(C)C)cc1P(C)(C)=O [15(x), 1-(5-(tert-butyl)-3-(dimethylphosphoryl)-2-methoxyphenyl)-3-(4-((2-((2-methyl-2H-1,2,3-triazol-4-yl)amino)pyrimidin-4-yl)oxy)naphthalen-1-yl)urea] | 356 nM | > 1630 nM | 624 nM | 35.9 nM | –
COc1c(CC(N)=O)cc(C(C)(C)C)cc1NC(=O)Nc1ccc(Oc2ccnc(NCc3ccccn3)c2)c2ccccc12 [38(d), 2-(5-(tert-Butyl)-2-methoxy-3-(3-(4-((2-((pyridin-2-ylmethyl)amino)pyridin-4-yl)oxy)naphthalen-1-yl)ureido)phenyl)acetamide] | > 1570 nM | > 1650 nM | 1650 nM | 106 nM | –
CNC(=O)Cc1cc(C(C)(C)C)cc(NC(=O)Nc2ccc(Oc3ccnc(Nc4cccc(OC)c4)c3)c3ccccc23)c1OC [38(h), 2-(5-(tert-Butyl)-2-methoxy-3-(3-(4-((2-((3-methoxyphenyl)amino)pyridin-4-yl)oxy)naphthalen-1-yl)ureido)phenyl)-N-methylacetamide] | 181 nM | 1080 nM | 160 nM | 17.7 nM | –
COc1cc(Nc2cc(Oc3ccc(NC(=O)Nc4cc(C(C)(C)C)cc(CC(N)=O)c4OC)c4ccccc34)ccn2)ccn1 [38(k), 2-(5-(tert-Butyl)-2-methoxy-3-(3-(4-((2-((2-methoxypyridin-4-yl)amino)pyridin-4-yl)oxy)naphthalen-1-yl)ureido)phenyl)acetamide] | 166 nM | > 1610 nM | 281 nM | 14.6 nM | –
COc1cc(CO)cc(Nc2cc(Oc3ccc(NC(=O)Nc4cc(C(C)(C)C)cc(CC(N)=O)c4OC)c4ccccc34)ccn2)c1 [38(m), 2-(5-(tert-Butyl)-3-(3-(4-((2-((3-(hydroxymethyl)-5-methoxyphenyl)amino)pyridin-4-yl)oxy)naphthalen-1-yl)ureido)-2-methoxyphenyl)acetamide] | 33 nM | 364 nM | 93.8 nM | 7 nM | –
COc1cncc(Nc2cc(Oc3ccc(NC(=O)Nc4cc(C(C)(C)C)cc(CC(N)=O)c4OC)c4ccccc34)ccn2)c1 [38(n), 2-(5-(tert-butyl)-2-methoxy-3-(3-(4-((2-((5-methoxypyridin-3-yl)amino)pyridin-4-yl)oxy)naphthalen-1-yl)ureido)phenyl)acetamide] | 95 nM | > 1610 nM | 348 nM | 14.1 nM | –
COc1c(CC(N)=O)cc(C(C)(C)C)cc1NC(=O)Nc1ccc(Oc2ccnc(Nc3ccn(C)n3)c2)c2ccccc12 [38(o), 2-(5-(tert-Butyl)-2-methoxy-3-(3-(4-((2-((1-methyl-1H-pyrazol-3-yl)amino)pyridin-4-yl)oxy)naphthalen-1-yl)ureido)phenyl)acetamide] | 47 nM | 381 nM | 60.8 nM | 7.8 nM | –
COc1c(CNC(C)=O)cc(C(C)(C)C)cc1NC(=O)Nc1ccc(Oc2ccnc(NCc3ccccn3)c2)c2ccccc12 [38(q), N-(5-(tert-Butyl)-2-methoxy-3-(3-(4-((2-((pyridin-2-ylmethyl)amino)pyridin-4-yl)oxy)naphthalen-1-yl)ureido)benzyl)acetamide] | 383 nM | > 1620 nM | 443 nM | 26.1 nM | –
COCCOCCOCCOc1cc(Nc2nccc(Oc3ccc(NC(=O)Nc4cc(C(C)(C)C)cc(OCP(C)(C)=O)c4OC)c4ccccc34)n2)cc(OC)c1 [Example 6, 1-(5-(tert-Butyl)-3-((dimethylphosphoryl)methoxy)-2-methoxyphenyl)-3-(4-((2-((3-methoxy-5-(2-(2-(2-methoxyethoxy)ethoxy)ethoxy)phenyl)amino)pyrimidin-4-yl)oxy)naphthalen-1-yl)urea] | 16 nM | 58 nM | – | 15.5 nM | 5.3 nM
COCCOCCOCCOc1cc(Nc2nccc(Oc3ccc(NC(=O)Nc4cc(C(C)(C)C)cc(C(=O)NCCN5CCOCC5)c4OC)c4ccccc34)n2)cc(OC)c1 [Example 8, 5-(tert-Butyl)-2-methoxy-3-(3-(4-((2-((3-methoxy-5-(2-(2-(2-methoxyethoxy)ethoxy)-ethoxy)phenyl)amino)pyrimidin-4-yl)oxy)naphthalen-1-yl)ureido)-N-(2-morpholinoethyl)-benzamide] | 14 nM | 42 nM | 41.4 nM | 2.2 nM | –
COc1c(CP(C)(C)=O)cc(C(C)(C)C)cc1NC(=O)Nc1ccc(Oc2ccnc(Nc3ccccc3)c2)c2ccccc12 [Example 24, 1-(5-(tert-Butyl)-3-((dimethylphosphoryl)methyl)-2-methoxyphenyl)-3-(4-((2-(phenylamino)-pyridin-4-yl)oxy)naphthalen-1-yl)urea] | 168 nM | 289 nM | 276 nM | 64 nM | –
COc1c(C[S+](C)[O-])cc(C(C)(C)C)cc1NC(=O)Nc1ccc(Oc2ccnc(Nc3ccccc3)c2)c2ccccc12 (centres unmarked) [Example 25, 1-(5-(tert-Butyl)-2-methoxy-3-((methylsulfinyl)methyl)phenyl)-3-(4-((2-(phenylamino)pyridin-4-yl)oxy)naphthalen-1-yl)urea] | 224 nM | 724 nM | 175 nM | 29.5 nM | –
COc1c(NC(=O)Nc2ccc(Oc3ccnc(Nc4cc(C)cc(C)c4)c3)c3ccccc23)cc(C(C)(C)C)cc1P(C)(C)=O [Example 28, 1-(5-(tert-Butyl)-3-(dimethylphosphoryl)-2-methoxyphenyl)-3-(4-((2-((3,5-dimethylphenyl)-amino)pyridin-4-yl)oxy)naphthalen-1-yl)urea] | 48 nM | 157 nM | 63.3 nM | 1.4 nM | –
COc1cccc(Nc2cc(Oc3ccc(NC(=O)Nc4cc(C(C)(C)C)cc(CC(N)=O)c4OC)c4ccccc34)ccn2)c1 [Example 33, 2-(5-(tert-Butyl)-2-methoxy-3-(3-(4-((2-((3-methoxyphenyl)amino)pyridin-4-yl)oxy)naphthalen-1-yl)ureido)phenyl)acetamide] | 63 nM | 519 nM | 117 nM | 11 nM | –
COc1c(CNC(C)=O)cc(C(C)(C)C)cc1NC(=O)Nc1ccc(Oc2ccnc(Nc3ccccc3)c2)c2ccccc12 [Example 35, N-(5-(tert-Butyl)-2-methoxy-3-(3-(4-((2-(phenylamino)pyridin-4-yl)oxy)naphthalen-1-yl)ureido)benzyl)acetamide] | 112 nM | 369 nM | 221 nM | 10.9 nM | –
COc1cc(Nc2cc(Oc3ccc(NC(=O)Nc4cc(C(C)(C)C)cc([S+](C)[O-])c4OC)c4ccccc34)ccn2)ccc1C(=O)NCCN1CCOCC1 (centres unmarked) [Example 72, 4-((4-((4-(3-(5-(tert-Butyl)-2-methoxy-3-(methylsulfinyl)phenyl)ureido)naphthalen-1-yl)oxy)pyridin-2-yl)amino)-2-methoxy-N-(2-morpholinoethyl)benzamide] | 20 nM | 98 nM | 156 nM | 7.5 nM | –
COc1cc(Nc2cc(Oc3ccc(NC(=O)Nc4cc(C(C)(C)C)cc(CC(N)=O)c4OC)c4ccccc34)ccn2)ccc1C(=O)NCC(CO)(CO)CO [Example 73, 4-((4-((4-(3-(3-(2-Amino-2-oxoethyl)-5-(tert-butyl)-2-methoxyphenyl)ureido)naphthalen-1-yl)oxy)pyridin-2-yl)amino)-N-(3-hydroxy-2,2-bis(hydroxymethyl)propyl)-2-methoxybenzamide] | 29 nM | 120 nM | 60.1 nM | 6.3 nM | –
COCCOCCOCCNC(=O)c1cc(Nc2cc(Oc3ccc(NC(=O)Nc4cc(C(C)(C)C)cc(CNC(=O)CN(C)C)c4OC)c4ccccc34)ccn2)cc(OC)c1 [Example 77, 3-((4-((4-(3-(5-(tert-Butyl)-3-((2-(dimethylamino)acetamido)methyl)-2-methoxyphenyl)ureido)naphthalen-1-yl)oxy)pyridin-2-yl)amino)-5-methoxy-N-(2-(2-(2-methoxyethoxy)ethoxy)ethyl)benzamide] | 17 nM | 51 nM | 18.9 nM | 2.3 nM | –
